Assay results reported in patent publication US8530653B2, “Enzyme inhibiting compounds” (Chelsea Therapeutics, Inc., priority 2009, dated 2013).

Target: T1, human dihydrofolate reductase (DHFR) (Homo sapiens, UniProt P00374)
T1 sequence (P00374 1-187): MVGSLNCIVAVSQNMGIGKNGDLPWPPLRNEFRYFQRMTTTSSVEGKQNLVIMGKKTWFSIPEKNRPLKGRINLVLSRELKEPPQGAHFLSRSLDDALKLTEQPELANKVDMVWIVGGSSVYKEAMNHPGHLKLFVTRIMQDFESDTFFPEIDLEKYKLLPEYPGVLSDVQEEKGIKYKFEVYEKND
Experiment: Inhibition of human DHFR (spectrophotometric, decrease in absorbance at 340 nm)
Type: biochemical
Details: recombinant human DHFR 0.2 μg/mL, 0.1 mM dihydrofolate, 0.1 mM NADPH, pH 7.3, 37° C., 1% DMSO, triplicate
Description: The activity of multiple compounds as inhibitors of human dihydrofolate reductase (DHFR) was evaluated. The dry test compounds were dissolved in 100% DMSO at a concentration of 10 mM. For the test assays, the compounds were serially diluted in 100% DMSO and added to the assays so that the final concentration of DMSO in the assays was 1%.
The final assay conditions for the human DHFR assays were: […] KPO4 (pH7.3), 250 mM KCl, 0.1 mM dihydrofolate, 0.1 mM NADPH, 1% DMSO, and 0.2 μg/mL recombinant human DHFR. The final volume of the assay was 800 μL in a semi-micro cuvet.
A decrease in absorbance at 340 nm was monitored for three minutes in a Cary spectrophotometer at 37° C. The concentrations used for each compound across a range of 10,000 to 0.08 nM, depending on the expected level of activity. The assays were done in triplicate for each compound. […] A minimum of seven concentrations were used to generate a curve, and IC50 values were calculated using the Standard Curve Analysis of Sigma Plot Enzyme Kinetics software.

Row | IC50 | SMILES
1 | 8.65 nM | Nc1nc(N)c2cc(CCc3ccc(C(=O)NCC[C@@H](O)C[C@@H](O)CC(=O)O)cc3)ccc2n1 [Inventive 1]
2 | 5.4 nM | C=C(CC(NC(=O)c1ccc(CCc2ccc3nc(N)nc(N)c3c2)cc1)C(=O)O)C(=O)O (stereo not drawn) [Comparative, 2-{4-[2-(2,4-diamino-quinazolin-6-yl)-ethyl]-benzoylamino}-4-methylidene-pentanedioic acid, reference compound]
3 | 670 nM | Nc1nc(N)c2cc(CCc3ccc(CNCC[C@@H](O)C[C@@H](O)CC(=O)O)cc3)ccc2n1 [Inventive 2]
